Assays:
SiHa cells [1] = assay: Colony formation assay in SiHa cells; assay type: cell-based, human; details: pretreated 20 μM 36 h, 2 weeks
Method: NAT10^± SiHa cells and SiHa cells treated with DMSO, Remodelin or NP1192 for 36 h were seeded into the wells of a 6-well microplate at identical densities of 2000 or 3000 cells per well. The cells were then incubated in the incubator for at least 2 weeks to form colonies. After the incubation period, the cells were fixed with formalin and then stained with crystal violet. The colonies were then counted via a microscope. The number and size of the colonies in the experimental groups were compared.

[2] = system: U14 cells subcutaneous xenograft; assay: U14 subcutaneous xenograft model in C57BL/6J mice; assay type: in vivo
Method: U14 cells (1 × 10^7 cells per mouse, approximately 100–150 μL of cell suspension) were implanted subcutaneously into the lateral lower dorsal surface of each mouse. The tumors were allowed to grow for 7 days, and the mice were then administered one of five treatments (group 1: U14 cells + DMSO; group 2: U14 cells + Remodelin; group 3: U14 cells + anti-PD-L1 antibody; group 4: U14 cells + NP1192; group 5: U14 cells + anti-PD-L1 antibody + NP1192). Each group of mice was assigned according to the principles of randomization and the blinding method. Tumors were measured every 2 days, and tumor volume was calculated via the following equation: volume = (width)^2 × length/2. Remodelin and NP1192 were injected into the peritumoral area every 2 days at a dose of 25 mg/kg, and the in vivo antimouse PD-L1 antibody (low endotoxin) was injected every 3 days at a dose of 2.5 mg/kg.
A lentiviral vector expressing firefly luciferase was transduced into the U14 cells. After puromycin selection and cell expansion, U14 cells with stable firefly luciferase expression were generated. C57BL/6J mice were randomly divided into the following 5 groups for further experiments: group 1, U14 cells + DMSO; group 2, U14 cells + Remodelin; group 3, U14 cells + anti-PD-L1 antibody; group 4, U14 cells + NP1192; and group 5, U14 cells + anti-PD-L1 antibody + NP1192. After tumor stabilization, the luciferase substrate was injected into the mice every 2 days, and fluorescence values were obtained via a Maestro in vivo imaging system.

U14 cells = assay: Lactic acid, ATP and 2-NBDG uptake assays in U14 cells; assay type: cell-based, murine; details: U14, 20 μM, 36 h
Method: (§1) SiHa and U14 cells (2 × 10^5 cells per well) were plated in 6-well plates and cultured in RPMI 1640 medium or DMEM supplemented with 10% FBS and 1% penicillin–streptomycin. After cell adherence, 20 μM NP1192 or DMSO was added and incubated for 36 h, and the assays were performed according to the instruction manuals for the Lactate Assay Kit (Nanjing Jiancheng, China), ATP Assay Kit (Beyotime, China), and 2-NBDG reagent (GlpBio, US). All data analyses were performed via GraphPad Prism 9, and the data are presented as the means ± SEMs.

SiHa cells [3] = assay: Transwell invasion assay in SiHa cells; assay type: cell-based, human; details: pretreated 20 μM 36 h, 12 h
Method: The Transwell chamber was assembled by coating the porous membrane insert in the top compartment with Matrigel to form a layer of extracellular matrix (ECM), and the top compartment was placed into a cell culture plate. NAT10^± SiHa cells and SiHa cells treated with DMSO, Remodelin or NP1192 for 36 h were collected and resuspended in serum-free medium at a density of 10,000 cells/200 μL of medium. Then, the cell suspension was added to the top compartment of the Transwell chamber, and the plate was placed in the incubator for 12 h. After incubation, the cells on the bottom surface of the membrane were fixed and stained. The cells were visualized under a microscope, and the number of cells that migrated through the membrane was determined via ImageJ software.

NP1192^Resist SiHa cells = assay: IC50 and resistance index in NP1192-resistant SiHa cells (CCK-8); assay type: cell-based, human
Method: We generated Remodelin-resistant (Remodelin^Resist SiHa) and NP1192-resistant (NP1192^Resist SiHa) SiHa CCa cell lines by applying a stepwise dose escalation strategy, as previously described in the literature. To quantitatively assess resistance, we calculated the resistance index for each subline following the established methodologies. Briefly, 3000 cells per well were seeded in 96-well plates and treated with increasing concentrations of Remodelin or NP1192 (0, 10, 50, 100, and 150 μM) for 24 h. Following treatment, 10 μL of CCK-8 reagent was added to each well and incubated for an additional 2 h. Absorbance at 490 nm was measured, and the IC50 values were calculated using GraphPad Prism 9.0. The RI was defined as the ratio of the IC50 in resistant cells to that in parental cells.

SiHa cells [4] = assay: Lactic acid, ATP and 2-NBDG uptake assays in SiHa cells; assay type: cell-based, human; details: 20 μM, 36 h
Method: as §1

[5] = system: high-grade serous ovarian carcinoma (OV) patient-derived organoids; assay: ATP-based viability assay in patient-derived organoids, OV; assay type: cell-based; details: Homo sapiens, OV PDOs, read-out: IC50, organoid viability
Method: Organoid culture was performed according to previously established protocols. Briefly, we procured patient-derived tissue samples provided and technically manipulated by Accurate International Biotechnology Co., Ltd. Subsequently, these samples were subjected to mechanical and enzymatic dissociation to disaggregate the tissue into single cells or small clusters, while preserving cellular integrity. Following this initial step, the isolated cells or tissue fragments were embedded within a 3D ECM scaffold, such as Matrigel or collagen. The ECM scaffold served as a supportive substrate, promoting cellular self-organization and mimicking native tissue architecture. Additionally, a precisely formulated cocktail of growth factors, cytokines, and signaling molecules tailored to the specific tissue of interest was meticulously formulated and added to the culture medium to facilitate organoid growth and maintenance.

With `N#Cc1ccc(-c2csc(N(CCCCCCC(=O)N3CCN(c4cccc5c4C(=O)N(C4CCC(=O)NC4=O)C5=O)CC3)N=C3CCCC3)n2)cc1` (stereo not shown) [NP1192] the colony formation capacity (SiHa cells [1]) was “substantial decrease in colony formation capacity”, the tumor volume ([2]; 25 mg/kg every 2 days, compared to DMSO or Remodelin) was “significantly reduced tumor volume” and the “weight loss or systemic toxicity” value ([2]; U14 xenograft mice, 25 mg/kg) was “did not cause significant weight loss or systemic toxicity”. For the same compound, the “reduction in tumor lactate levels” value ([2]; xenograft tumors after treatment for 1 week) was “more than 40%”, the lactate levels (U14 cells) was “significantly decreased lactate levels” and the “level of ATP production” value (U14 cells) was “increased markedly”. For the same compound, the “absorbtion rate (glucose analog 2-NBDG)” value (U14 cells; Figure 4L, DMSO 9.57) was 0.80, the cell invasion (SiHa cells [3]) was “substantially hindered CCa cell invasion” and the “resistance index (RI = IC50 resistant/parental SiHa)” value (NP1192^Resist SiHa cells; 76.2/7.814) was 9.75. For the same compound, the IC50 (NP1192^Resist SiHa cells; Homo sapiens, NP1192^Resist SiHa cells) was 76.2 µM, the lactate levels (SiHa cells [4]) was “significantly decreased lactate levels” and the “absorbtion rate (glucose analog 2-NBDG)” value (SiHa cells [4]; Figure 4K, DMSO 3.21) was 1.94. For the same compound, the IC50 [5] was 9.95 µM.

From paper PMC12670317, “Targeted NAT10 Degradation by PROTAC NP1192 Suppresses Hypoxia-Adaptive Glycolysis and Reinvigorates CD8^+ Effector T‑Cell Function for Synergistic Cancer Immunotherapy” (ACS Central Science, 2025)
